In US7667070B2, “Lipophilic compounds and uses thereof” (Centre National de la Recherche Scientifique (CNRS), priority 2002, dated 2010):

What was measured:
mice's lungs = experiment: In vivo transfection of luciferase plasmid DNA complexed with cationic lipid (luciferase in lungs, RLU); set-up: species or system mice of the Swiss lineage; conditions: mouse, 50 μg plasmid DNA as lipid/DNA complex; alone or with DOPE or cholesterol; FIG. 6
Description: Cationic lipid/DNA complexes are prepared according to a charge (+/−) ratio of 4 and are administered to six week old mice of the Swiss lineage through one single injection into the caudal vein. Each animal receives a volume of 200 μl of a solution of the tested lipid/DNA complex, corresponding to 50 μg plasmid DNA coding the luciferase protein.
The animals are sacrificed 24 hours after the injection and each organ of interest id deep frozen in liquid nitrogen and then stored at a temperature of −70° C.
The deep frozen tissues are ground with steel balls in a 2 ml round bottom tube of the Epperdorf type using a device of the Mill MM300 mixer type (marketed by QIAGEN Company; reference: 0030120-094).
The extraction of the proteins from each tissue is performed by incubating the ground tissues in a PLB lysis buffer (Promega) followed by a centrifugation at 10,000 g, 10 min at 4° C. […]
Parallelly, the total protein concentration is measured using the <<Coomassie Plus Reagent Assay Kit>> (marketed by Pierce Company). […]
A comparative study of different cationic lipids is conducted by varying the linking part (Group R^3) between the hydrophobic domain and the hydrophilic domain, in mouse. Each lipid is evaluated separately or in admixture with the DOPE compound or cholesterol, used as co-lipids, as described in the <<Material and Methods>> section.

[1] = test system: K 562, Jurkat, Daudi, HeLa, CFPAC cells; experiment: Determination of the cell toxicity of lipid/DNA complexes (CYTOLITE chemiluminescent test, toxicity index); assay type: cell-based; conditions: 48 hours after transfection; non transfected cells as controls
Description: The relative cytotoxicity of the different cationic phosphonolipid/DNA complexes is determined as a representation of the number of living cells after the transfection experiment, measured by using a chemiluminescent test, the CYTOLITE® test (marketed by PACKARD Company, France) following the manufacturer's recommendations.
The cell transfection is conducted following the procedure described in the above Section A.3.
On the day of the transfection, cells are seeded in 24-well plate wells at a level of: • 500,000 cells per well for the non adherent cell lineages (K 562. Jurkat, Daudi); and • 150,000 cells per well for the adherent cell lineages (HeLa, CFPAC cells in primary culture).
The cells are treated for the transfection as described hereinabove and incubated for another period of 48 hours.
After incubation, the cytotoxicity test is conducted following the manufacturer's recommendations.
The amount of relative light units (RLU for <<Relative light units>>) being formed is proportional to the number of living cells.
The non transfected cells are used as controls.
The final results are expressed following a toxicity index. The toxicity index represents the ratio between the number of living cells in the control cultures (without cationic lipids/DNA complex) and the number of living cells in the culture wells containing the transfected cells.

SMILES	in vivo transfection efficiency (luciferase amount found in lungs) (mice's lungs)	cytotoxicity (toxicity index: living cells in control cultures / living cells in transfected cultures) [1]
CCCCCCCC/C=C\CCCCCCCCOP(=O)(NCCC[P+](C)(C)C)OCCCCCCCC/C=C\CCCCCCCC.[I-] [KLN20, dioleyl 3-(trimethylphosphonio)propylamidophosphate iodide]	most efficient	–
CCCCCCCCCCCCCCOP(=O)(OCCCCCCCCCCCCCC)N(C)CCC[N+](C)(C)C.[I-] [KLN 5, 3-[[bis(tetradecyloxy)phosphoryl](methyl)amino]-N.N.N-trimethyl-propanaminium iodide]	–	does not show any toxicity
